From PMC2106221 (The Journal of Cell Biology, 1963)
Like-named read-outs stand apart in the source and are kept apart here. Each block holds one compound with its values, some of them ahead of it.

Key:
[1] = target: T1, bovine trypsin (crystalline) (Bos taurus, UniProt P00760); format: biochemical; details: for Percentage inhibition 5 min.: DL-BANA 0.60 mM, enzyme 10 μg/ml
T1 sequence (P00760 24-246): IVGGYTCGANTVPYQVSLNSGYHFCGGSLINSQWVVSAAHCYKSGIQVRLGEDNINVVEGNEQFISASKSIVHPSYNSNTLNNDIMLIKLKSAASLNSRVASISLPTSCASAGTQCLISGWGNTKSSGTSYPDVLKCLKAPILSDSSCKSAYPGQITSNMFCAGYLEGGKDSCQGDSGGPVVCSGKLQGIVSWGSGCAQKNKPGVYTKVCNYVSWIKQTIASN

[2] = tested on: trypsin-like amidase and esterase activity in human mast cells (mast cell enzyme(s)); format: biochemical; details: for time required for the appearance of visible mast cells, mean: double-blind; for time to observable mast cells at theoretical Vm: from the Lineweaver-Burk plot; for time for the demonstration of mast cells: optimal substrate concentration
canine mast cells = assay: histochemical reaction in canine skin sections; format: biochemical, dog; details: incubation period of 1 hour
[3] = spontaneous hydrolysis of ester substrate in water/buffer; format: physicochemical
chymotrypsin = details: pH 7.2 ref 2; cited from earlier work
[4] = target: T1, bovine trypsin (crystalline); details: trypsin 4 X pancreatin (Nutritional Biochemical Corporation) ref 1; cited from earlier work
[5] = diazonium coupling velocity in test tube, spectrophotometric half-reaction times; format: physicochemical
[6] = Lineweaver-Burk plot, human mast cells

SMILES: Cl.N=C(N)NCCCC(NC(=O)c1ccccc1)C(=O)Nc1ccc2ccccc2c1 (racemic) [DL-BANA, benzoyl-DL-arginine β-naphthylamide hydrochloride]
Vm ([1]; in the absence of Garnet GBC): 50 mμM β-naphthylamine liberated
Vm ([1]; in the presence of Garnet GBC): 30 mμM β-naphthylamine liberated
time required for the appearance of visible mast cells, mean ([2]; Experiment 1, DL-BANA 0.12 mM): 7.0 min
time required for the appearance of visible mast cells, mean ([2]; Experiment 2, DL-BANA 0.050 mM): 15.9 min
time to observable mast cells at theoretical Vm [2]: 2 min
time for the demonstration of mast cells ([2]; human mast cells): 5 to 6 min

SMILES: Cl.NCCCCC(NC(=O)c1ccccc1)C(=O)Nc1ccc2ccccc2c1 (racemic) [DL-BLyNA, benzoyl-DL-lysine β-naphthylamide hydrochloride]
reaction in canine mast cells (canine mast cells): No reaction
time to observable mast cells at theoretical Vm [2]: 2 min
time for the demonstration of mast cells ([2]; human mast cells): 5 to 6 min

SMILES: NC(=O)[C@H](CCCN=C(N)N)NC(=O)c1ccccc1 [BAA, benzoyl-L-arginine amide, reference compound]
nature of inhibition of DL-BANA hydrolysis [2, 6]: competitive
nature of inhibition of DL-BLyNA hydrolysis ([2]; human mast cells): competitive

SMILES: COC(=O)[C@H](CCCNC(=N)N)NC(=O)c1ccccc1 [BAME, benzoyl-L-arginine methyl ester, reference compound]
nature of inhibition of DL-BANA hydrolysis [2, 6]: competitive
nature of inhibition of EACA-AS hydrolysis [2, 6]: competitive inhibitor

SMILES: Cl.N=C(N)NCCC[C@@H](NC(=O)c1ccccc1)C(=O)Nc1ccc2ccccc2c1 [D-BANA, benzoyl-D-arginine β-naphthylamide hydrochloride]
nature of inhibition of tryptic hydrolysis of L-BANA [1]: competitive inhibitor
substrate for trypsin [1]: not a substrate for trypsin
nature of inhibition of DL-BANA hydrolysis [2, 6]: competitive inhibitor
hydrolysis in the mast cells ([2]; tested as substrate): not hydrolyzed

spontaneous hydrolysis in water ([3]; pH 5-6): insignificant
substrate concentration at approximately 50 per cent of the reaction velocity ([1]; trypsin, velocity calculated from the Lineweaver-Burk plot): ~20 /ZM
SMILES: NCCCCCC(=O)Oc1cc2ccccc2cc1C(=O)Nc1ccccc1 [EACA-AS, Naphthol AS ε-aminocaproate]
mean substrate concentration during spontaneous hydrolysis ([3]; pH 7.2, during 20 minutes): 92 per cent of the original concentration
mean substrate concentration during spontaneous hydrolysis ([3]; pH 7.2, during 30 minutes): 90 per cent of the original concentration
mean substrate concentration during spontaneous hydrolysis ([3]; pH 7.2, during the first 10 minutes): 95 per cent of the original concentration
hydrolysis by chymotrypsin relative to that of trypsin (chymotrypsin): about 10 per cent
substrate concentration at approximately half-maximal velocity ([2]; human mast cells, Fig. 7): ~7 #M

SMILES: Cc1ccccc1NC(=O)c1cc2ccccc2cc1OC(=O)CCCCCN [EACA-AS-D, Naphthol AS-D ε-aminocaproate]
results as substrate compared with EACA-AS ([2]; both biochemical and histochemical studies): essentially the same results as EACA-AS

Percentage inhibition 5 min. ([1]; Garnet GBC 0.05 mg/ml): 4.7%
Percentage inhibition 5 min. ([1]; Garnet GBC 0.10 mg/ml): 13.2%
Percentage inhibition 5 min. ([1]; Garnet GBC 0.20 mg/ml): 16.5%
Percentage inhibition 5 min. ([1]; Garnet GBC 0.40 mg/ml): 20.1%
Percentage inhibition 5 min. ([1]; Garnet GBC 2.00 mg/ml): 35.0%
nature of inhibition of tryptic DL-BANA hydrolysis ([1]; Lineweaver-Burk plot): uncompetitive inhibition
inhibition of Vm of DL-BANA hydrolysis by the diazonium salt ([1]; from Lineweaver-Burk plot, Fig. 6): about 40 per cent
change of hydrolysis rate after preincubation with diazonium salt ([1]; preincubation of 60 minutes prior to the addition of substrate): no more than 15 per cent
SMILES: Cc1ccccc1N=Nc1ccc([N+]#N)c(C)c1 [Garnet GBC]
inhibition of DL-BANA hydrolysis [4]: Up to 75 per cent

SMILES: Nc1ccc2ccccc2c1 [β-naphthylamine]
Half-reaction time of coupling with Garnet GBC ([5]; Garnet GBC 0.70 mg/ml, presence of Tween 20): 7 s
Half-reaction time of coupling with Garnet GBC ([5]; Garnet GBC 0.70 mg/ml, presence of albumin): 48 s
Half-reaction time of coupling with Garnet GBC ([5]; Garnet GBC 0.70 mg/ml, water, pH 7.2): 93 s
Half-reaction time of coupling with Garnet GBC ([5]; Garnet GBC 1.40 mg/ml, presence of Tween 20): 4 s
Half-reaction time of coupling with Garnet GBC ([5]; Garnet GBC 1.40 mg/ml, presence of albumin): 23 s
Half-reaction time of coupling with Garnet GBC ([5]; Garnet GBC 1.40 mg/ml, water, pH 7.2): 42 s
